Measured values: ChEMBL document CHEMBL1201862, “PubChem BioAssay data set” (2004)
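In this assay, cells in 96-well plates receive the compound at five concentrations for 48 hours. Endpoints are linearly interpolated between the surrounding concentrations. At the GI50, growth is halved.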 The source made the active and inactive calls. Cut-off read from the data, not from the text of the source: active = GI50 up to about 1.1 µM and inactive = higher.

Experiments:
Assay in all cases: DTP human tumour cell line panel, 48 h
A498 = test system: A498
SF-268 = test system: SF-268
UACC-257 = test system: UACC-257
NCI-H226 = test system: NCI-H226
SF-539 = test system: SF-539
HCT-116 = test system: HCT-116
RPMI-8226 = test system: RPMI-8226
NCI-H23 = test system: NCI-H23
OVCAR-4 = test system: OVCAR-4
DU-145 = test system: DU-145
K562 = test system: K562
SNB-75 = test system: SNB-75
MOLT-4 = test system: MOLT-4
A549 = test system: A549
SK-MEL-2 = test system: SK-MEL-2
TK-10 = test system: TK-10
LOX IMVI = test system: LOX IMVI
MDA-MB-435 = test system: MDA-MB-435
HOP-92 = test system: HOP-92
M14 = test system: M14

SMILES	GI50 (A498)	GI50 (SF-268)	GI50 (UACC-257)	GI50 (NCI-H226)	GI50 (SF-539)	GI50 (HCT-116)	GI50 (RPMI-8226)	GI50 (NCI-H23)	GI50 (OVCAR-4)	GI50 (DU-145)	GI50 (K562)	GI50 (SNB-75)	GI50 (MOLT-4)	GI50 (A549)	GI50 (SK-MEL-2)	GI50 (TK-10)	GI50 (LOX IMVI)	GI50 (MDA-MB-435)	GI50 (HOP-92)	GI50 (M14)
Cc1cn(CC2(CO)CCC2)c(=O)[nH]c1=O	> 100 µM (inactive)	> 10 µM (inactive)	> 100 µM (inactive)	> 100 µM (inactive)	> 100 µM (inactive)	> 100 µM (inactive)	> 100 µM (inactive)	> 100 µM (inactive)	> 100 µM (inactive)	> 100 µM (inactive)	> 100 µM (inactive)	> 100 µM (inactive)	> 100 µM (inactive)	> 100 µM (inactive)	> 100 µM (inactive)	> 100 µM (inactive)	> 100 µM (inactive)	> 100 µM (inactive)		
Cc1n[nH]/c(=N\S(=O)(=O)c2ccc(/N=N/c3c(O)c(C(=O)O)cc4ccccc34)cc2)s1		> 100 µM (inactive)	> 100 µM (inactive)	> 100 µM (inactive)	> 100 µM (inactive)	> 100 µM (inactive)	> 100 µM (inactive)	> 100 µM (inactive)	> 100 µM (inactive)	> 100 µM (inactive)	> 100 µM (inactive)	> 100 µM (inactive)	> 100 µM (inactive)	> 100 µM (inactive)	> 100 µM (inactive)	> 100 µM (inactive)		> 100 µM (inactive)	> 100 µM (inactive)	> 100 µM (inactive)
N#CCCN(C(=O)Nc1ccccc1)[C@H]1CCCC[C@@H]1N(C(=O)Nc1ccccc1)c1ccccc1			> 100 µM (inactive)	77.8 µM (inactive)	> 100 µM (inactive)	66.7 µM (inactive)	36.7 µM (inactive)	> 100 µM (inactive)	64.6 µM (inactive)	> 100 µM (inactive)	49.1 µM (inactive)	16.7 µM (inactive)	25.1 µM (inactive)	58.1 µM (inactive)	> 100 µM (inactive)	> 100 µM (inactive)	> 100 µM (inactive)	> 100 µM (inactive)	> 100 µM (inactive)	64.7 µM (inactive)
N#Cc1ccc(-c2nc(C#N)c(N)o2)cc1		> 10 µM (inactive)	> 10 µM (inactive)	> 10 µM (inactive)	> 10 µM (inactive)	> 10 µM (inactive)	> 10 µM (inactive)	> 10 µM (inactive)	> 10 µM (inactive)	> 10 µM (inactive)	> 10 µM (inactive)	> 10 µM (inactive)	> 10 µM (inactive)	> 10 µM (inactive)		> 10 µM (inactive)	> 10 µM (inactive)	> 10 µM (inactive)	> 10 µM (inactive)	> 10 µM (inactive)
COC(=O)c1ccccc1/C=C1\Cc2cc3c(cc2C1=O)CCC3	61.2 µM (inactive)	68.5 µM (inactive)	> 100 µM (inactive)	> 100 µM (inactive)	> 100 µM (inactive)	45 µM (inactive)	> 100 µM (inactive)	> 100 µM (inactive)	> 100 µM (inactive)	> 100 µM (inactive)		34.9 µM (inactive)	> 100 µM (inactive)	> 100 µM (inactive)	20.7 µM (inactive)	59.8 µM (inactive)	> 100 µM (inactive)	3.89 µM (inactive)		24 µM (inactive)
CC[C@]12C=CCN3CC[C@@]4(c5cc(Br)c(OC)cc5N(C)[C@H]4[C@@](O)(C(=O)NC(Cc4c[nH]c5ccccc45)C(=O)OC)[C@@H]1O)[C@@H]32 (stereo partly drawn)		6.15 µM (inactive)		10.8 µM (inactive)	16.4 µM (inactive)	7.08 µM (inactive)	2.94 µM (inactive)	45.1 µM (inactive)	20.5 µM (inactive)	35.2 µM (inactive)	5.37 µM (inactive)	> 100 µM (inactive)	2.87 µM (inactive)	11.8 µM (inactive)	25.2 µM (inactive)		4.6 µM (inactive)	26.2 µM (inactive)	22.3 µM (inactive)	20.5 µM (inactive)
CC1=CC(C)C(C)N(CCNC(=O)Nc2ccccc2)c2ccccc21 (stereo not drawn)	16.2 µM (inactive)	27.5 µM (inactive)	13.7 µM (inactive)	22.1 µM (inactive)	21.4 µM (inactive)	13.9 µM (inactive)	14.6 µM (inactive)	17.6 µM (inactive)	27.4 µM (inactive)	32.7 µM (inactive)	17.1 µM (inactive)	27.3 µM (inactive)	20 µM (inactive)	12 µM (inactive)	23.1 µM (inactive)	20.9 µM (inactive)	6.81 µM (inactive)	25.1 µM (inactive)		23.8 µM (inactive)
CC1(C)OC(=O)C(C)(C)C(=O)O1		> 100 µM (inactive)	> 100 µM (inactive)	> 100 µM (inactive)	> 100 µM (inactive)	> 100 µM (inactive)		> 100 µM (inactive)	> 100 µM (inactive)	> 100 µM (inactive)	> 100 µM (inactive)	> 100 µM (inactive)	> 100 µM (inactive)	> 100 µM (inactive)	> 100 µM (inactive)	> 100 µM (inactive)	> 100 µM (inactive)			> 100 µM (inactive)
COC(=O)C(C)(C)OCc1ccc(C2NC(=O)N(c3cccc(Cl)c3)C(=O)N2c2cccc(Cl)c2)cc1 (stereo not drawn)		26.1 µM (inactive)	31.8 µM (inactive)		50.1 µM (inactive)	36.6 µM (inactive)	9.16 µM (inactive)	1.26 µM (inactive)	57.5 µM (inactive)	59.7 µM (inactive)	7.45 µM (inactive)	0.34 µM (active)	8.07 µM (inactive)	35.2 µM (inactive)	52.8 µM (inactive)			46 µM (inactive)	15.1 µM (inactive)	65.3 µM (inactive)
Cc1cccc(NC(=O)CCl)c1	> 10 µM (inactive)	8.69 µM (inactive)	> 10 µM (inactive)	7.36 µM (inactive)	9.31 µM (inactive)	6.95 µM (inactive)	> 10 µM (inactive)	4.26 µM (inactive)	3.29 µM (inactive)	> 10 µM (inactive)	6.11 µM (inactive)		> 10 µM (inactive)	> 10 µM (inactive)	> 10 µM (inactive)	> 10 µM (inactive)	6.19 µM (inactive)	9.02 µM (inactive)		8.77 µM (inactive)
CC(=O)OCC(=O)[C@@]12OC(C)(C)O[C@@H]1C[C@H]1[C@@H]3CC=C4C[C@@H](O)CC[C@]4(C)[C@H]3CC[C@@]12C	32.1 µM (inactive)	31.6 µM (inactive)	> 100 µM (inactive)	> 100 µM (inactive)	30.8 µM (inactive)	68.1 µM (inactive)	59.8 µM (inactive)	57.7 µM (inactive)	> 100 µM (inactive)	49.2 µM (inactive)	> 100 µM (inactive)	13.9 µM (inactive)	> 100 µM (inactive)	> 100 µM (inactive)	> 100 µM (inactive)	40.3 µM (inactive)	> 100 µM (inactive)	> 100 µM (inactive)		> 100 µM (inactive)
O=[N+]([O-])c1ccc(CSc2nn(Cc3ccc([N+](=O)[O-])cc3)cc3ncnc2-3)cc1	18.4 µM (inactive)		29 µM (inactive)	38.4 µM (inactive)	32 µM (inactive)	37.1 µM (inactive)	14.8 µM (inactive)	26.4 µM (inactive)	52.5 µM (inactive)		31.8 µM (inactive)	34.1 µM (inactive)	23.5 µM (inactive)	39 µM (inactive)	19.7 µM (inactive)	29 µM (inactive)	33.9 µM (inactive)	21.1 µM (inactive)	0.361 µM (active)	34.8 µM (inactive)
CCCOc1ccc(/C(Cl)=C(\C=O)c2ccc(OC)c(OC)c2)cc1OCCC	12.3 µM (inactive)	3.73 µM (inactive)	11 µM (inactive)	13.2 µM (inactive)	14.1 µM (inactive)	2.64 µM (inactive)	2.7 µM (inactive)	3.46 µM (inactive)	7.03 µM (inactive)		6.1 µM (inactive)	11.9 µM (inactive)	2.31 µM (inactive)	5.43 µM (inactive)	11.6 µM (inactive)	28.1 µM (inactive)	10.5 µM (inactive)		18 µM (inactive)	12.7 µM (inactive)
Nc1ccc(Sc2nnc(N)s2)cc1		> 100 µM (inactive)	> 100 µM (inactive)		> 100 µM (inactive)	> 100 µM (inactive)	> 100 µM (inactive)		> 100 µM (inactive)		> 100 µM (inactive)	> 100 µM (inactive)	> 100 µM (inactive)	> 100 µM (inactive)		> 100 µM (inactive)		> 100 µM (inactive)		> 100 µM (inactive)
CCOc1ccc(C(CN2CCOCC2)C(C)=O)cc1OC (stereo not drawn)	26.5 µM (inactive)	19.7 µM (inactive)	22.1 µM (inactive)	17.7 µM (inactive)	16 µM (inactive)	20.4 µM (inactive)	11.5 µM (inactive)	18.6 µM (inactive)	18.3 µM (inactive)		3.1 µM (inactive)	18.7 µM (inactive)	21.9 µM (inactive)	24.6 µM (inactive)	14.3 µM (inactive)	17.1 µM (inactive)	17 µM (inactive)		18.9 µM (inactive)	17.5 µM (inactive)
CCOC(=O)CNC(=O)C(CSC(=O)N(O)c1ccc(Cl)cc1)NC(=O)CCC(N)C(=O)OCC (stereo not drawn)		1.88 µM (inactive)	> 50 µM (inactive)	1.32 µM (inactive)	> 50 µM (inactive)	> 50 µM (inactive)	12.1 µM (inactive)	> 50 µM (inactive)		> 50 µM (inactive)	11.8 µM (inactive)		19.3 µM (inactive)	> 50 µM (inactive)	> 50 µM (inactive)		> 50 µM (inactive)	30.1 µM (inactive)	3.98 µM (inactive)	34.8 µM (inactive)
